The values below come from PubChem BioAssay (NCI).

“And” between values parts separate entries of the source, which are not always exact repeats. Identical values can stand only once.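 96-well plates; 48 h exposure; 5 concentrations. Endpoints by linear interpolation between flanking doses. Not reached: highest tested concentration assigned. GI50 = concentration required for 50% inhibition of growth. At the TGI there is no net growth.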

Test systems include TK-10 renal; KM12 colon; MDA-MB-435; HCT-15 colon; NCI/ADR-RES ovarian; SK-OV-3 ovarian; OVCAR-3 ovarian; HOP-92 NSCLC; CCRF-CEM leukemia; EKVX NSCLC.
What all share (assay): DTP human tumour cell line panel, 48 h

Regarding `Nc1c(C(=O)c2cccc(CCC3(O)CCCC3)c2)cnn1-c1ccc(F)cc1`, the GI50 in the assay on TK-10 renal was 18.8 µM; in the assay with KM12 colon, 17.1 µM; in the assay with MDA-MB-435, 8.98 µM; with HCT-15 colon, 18.7 µM; in the assay on NCI/ADR-RES ovarian, 7.68 µM; in the assay with SK-OV-3 ovarian, over 25 µM. In addition, the GI50 was over 18 µM in the assay on OVCAR-3 ovarian, 2.73 µM in the assay with HOP-92 NSCLC and 18.8 µM with CCRF-CEM leukemia. Moreover, the TGI in the assay on TK-10 renal, in the assay on KM12 colon, with MDA-MB-435, with HCT-15 colon, in the assay with NCI/ADR-RES ovarian and in the assay with SK-OV-3 ovarian was over 25 µM each time. The TGI with OVCAR-3 ovarian is over 25 µM; in the assay with HOP-92 NSCLC, 20.2 µM; in the assay with CCRF-CEM leukemia, over 25 µM.
As to `O=C(NC(=S)NNC(=S)NNc1ccccc1)c1ccccc1`, the GI50 in the assay with TK-10 renal is 35.4 µM; in the assay on KM12 colon, 7.09 µM; in the assay with MDA-MB-435, 3.47 µM; in the assay with HCT-15 colon it was 5.21 µM; in the assay on NCI/ADR-RES ovarian, 5.26 µM; in the assay with SK-OV-3 ovarian, 44.2 µM. Also, the GI50 in the assay with OVCAR-3 ovarian was 18.2 µM; in the assay with CCRF-CEM leukemia, 5.33 µM. Also, the TGI in the assay on TK-10 renal, in the assay on KM12 colon, in the assay with MDA-MB-435, with HCT-15 colon, with NCI/ADR-RES ovarian and in the assay with SK-OV-3 ovarian was over 100 µM each time. Besides, the TGI in the assay with OVCAR-3 ovarian and in the assay with CCRF-CEM leukemia was over 100 µM each time.
For the compound `COc1ccc2c(c1)sc1nc(-c3ccccc3)c(-c3ccc(O)c(OC)c3)n12`, the GI50 is over 100 µM with TK-10 renal; 4.81 µM in the assay with KM12 colon; 74.7 µM in the assay on EKVX NSCLC; 1.42 µM with MDA-MB-435; 4.03 µM in the assay with HCT-15 colon; 4.55 µM with NCI/ADR-RES ovarian. Also, the GI50 was 19.6 µM in the assay on SK-OV-3 ovarian, 10.1 µM with OVCAR-3 ovarian and 28 µM in the assay on HOP-92 NSCLC. Besides, the total growth inhibition concentration (TGI) in the assay on TK-10 renal is over 100 µM; in the assay on KM12 colon it was over 100 µM; in the assay with EKVX NSCLC, over 100 µM; in the assay with MDA-MB-435, 5.59 µM; in the assay on HCT-15 colon it was over 100 µM; in the assay on NCI/ADR-RES ovarian it was over 100 µM. The values for the total growth inhibition concentration (TGI) in the assay on SK-OV-3 ovarian, in the assay with OVCAR-3 ovarian and in the assay on HOP-92 NSCLC were over 100 µM, 63.8 µM and over 100 µM, respectively.
With `CC(=O)OC1CCC2(C)C(CCC3C4CC=C(C(C)=O)C4(C)OC(=O)CC32)C1` (stereo not drawn), the GI50 is 2.05 µM in the assay on TK-10 renal; 9.83 µM with KM12 colon; 1.71 µM with MDA-MB-435; 1.13 µM in the assay on HCT-15 colon; 3.45 µM in the assay with NCI/ADR-RES ovarian; 11.1 µM in the assay with SK-OV-3 ovarian. Further, the GI50 is 1.63 µM with OVCAR-3 ovarian, 1.74 µM in the assay with HOP-92 NSCLC and 1.3 µM in the assay with CCRF-CEM leukemia. Also, the TGI in the assay on TK-10 renal worked out at 4.77 µM; in the assay with KM12 colon, 22.7 µM; in the assay with MDA-MB-435 it was 4.66 µM; with HCT-15 colon, 2.61 µM; in the assay with NCI/ADR-RES ovarian, 13 µM; with SK-OV-3 ovarian, 23.1 µM. The TGI in the assay with OVCAR-3 ovarian stood at 3.04 µM; with HOP-92 NSCLC it was 4.21 µM; in the assay on CCRF-CEM leukemia, 4.87 µM.
In the case of `COc1ccc(/C=C/C(=O)c2ccc3cc(OC)c(OC)cc3c2)cc1OC`, the GI50 is 3.17 µM with TK-10 renal; 2.69 µM in the assay with KM12 colon; 3.06 µM in the assay on MDA-MB-435; 2.69 µM in the assay with HCT-15 colon; 2.71 µM in the assay on NCI/ADR-RES ovarian; 4.41 µM in the assay on SK-OV-3 ovarian. For the same compound, the GI50 in the assay with OVCAR-3 ovarian is 3.2 µM; in the assay with HOP-92 NSCLC it was 1.65 µM; with CCRF-CEM leukemia, 3.03 µM. The TGI with TK-10 renal turned out to be 9.97 µM; with KM12 colon, 7.95 µM; with MDA-MB-435, 18.1 µM; with HCT-15 colon it was 40.8 µM; with NCI/ADR-RES ovarian, 8.85 µM; in the assay with SK-OV-3 ovarian, 83.5 µM. The TGI in the assay on OVCAR-3 ovarian is 13.5 µM; with HOP-92 NSCLC, 6.26 µM; in the assay with CCRF-CEM leukemia it was 31.6 µM.
As for `COc1cc2c(c(OC)c1OC)-c1ccc(SC)c(=O)cc1[C@@H](NCc1cccc(C#N)c1)CC2`, the GI50 was 16.2 µM with TK-10 renal; under 0.0075 µM in the assay on KM12 colon; under 0.0075 µM with EKVX NSCLC; under 0.0075 µM in the assay on HCT-15 colon; under 0.0075 µM with SK-OV-3 ovarian; under 0.0075 µM with HOP-92 NSCLC. The GI50 with CCRF-CEM leukemia is under 0.0075 µM. In addition, the TGI in the assay with TK-10 renal was over 75 µM; with KM12 colon, 0.0509 µM and 0.0128 µM; with EKVX NSCLC it was over 75 µM; with OVCAR-3 ovarian it was 0.0493 µM; in the assay with HOP-92 NSCLC, over 75 µM; in the assay on CCRF-CEM leukemia, 6.16 µM.
As to `Cc1ccc(C2(O)CC(c3ccc([N+](=O)[O-])o3)=NN2C(=O)COc2ccccc2Cl)cc1` (stereo not drawn), the TGI in the assay on TK-10 renal was over 86.1 µM; in the assay with KM12 colon, over 100 µM; in the assay with EKVX NSCLC, 28.8 µM; in the assay on HCT-15 colon it was 24.1 µM; in the assay with SK-OV-3 ovarian, over 100 µM; with OVCAR-3 ovarian, 19.9 µM. Besides, the TGI was over 95.3 µM in the assay on HOP-92 NSCLC and over 100 µM in the assay on CCRF-CEM leukemia.
As for `O=C1c2cc3c(cc2[C@@H]2[C@H]1c1ccc([N+](=O)[O-])cc1C(=O)N2CCCCl)OCO3`, the GI50 in the assay on TK-10 renal was 0.0868 µM; in the assay with KM12 colon, under 0.0113 µM; in the assay with EKVX NSCLC, under 0.01 µM; with MDA-MB-435, under 0.01 µM; in the assay with HCT-15 colon it was under 0.0145 µM; in the assay with NCI/ADR-RES ovarian, under 0.01 µM. Moreover, the concentration for 50% growth inhibition (GI50) in the assay with SK-OV-3 ovarian is under 0.027 µM; with OVCAR-3 ovarian, 0.073 µM; in the assay on HOP-92 NSCLC, under 0.03 µM. The TGI in the assay on KM12 colon was 2.05 µM; with EKVX NSCLC, over 100 µM; with MDA-MB-435, under 0.0422 µM; with HCT-15 colon, over 40.6 µM; in the assay on NCI/ADR-RES ovarian it was 0.548 µM; with OVCAR-3 ovarian, 0.456 µM. This compound registered a TGI with HOP-92 NSCLC of over 100 µM.
`C/C1=C\C/C=C(\C)[C@H]2CC(CC/C(C)=C/CC1)[C@@](C)(CO)O2`: the GI50 with KM12 colon is 62.7 µM; with EKVX NSCLC, over 100 µM; with MDA-MB-435 it was over 100 µM; in the assay on HCT-15 colon, over 100 µM; with NCI/ADR-RES ovarian it was over 100 µM; in the assay on SK-OV-3 ovarian, over 100 µM. In addition, the GI50 in the assay with OVCAR-3 ovarian was over 100 µM; with HOP-92 NSCLC it was 36.3 µM; with CCRF-CEM leukemia, 72.8 µM. Moreover, the concentration for total growth inhibition (TGI) in the assay with KM12 colon, in the assay with EKVX NSCLC, in the assay on MDA-MB-435, in the assay on HCT-15 colon, in the assay on NCI/ADR-RES ovarian and in the assay with SK-OV-3 ovarian was over 100 µM in each case. The TGI in the assay on OVCAR-3 ovarian, with HOP-92 NSCLC and in the assay on CCRF-CEM leukemia was over 100 µM in each case.
